According to patent US20060166934A1, “Composition comprising phytosphingosine derivatives for apoptosis induction” (Tae-Yoon Kim, priority 2002, published 2006):
Read-outs that look alike come from different tables or passages of the source.

Legend:
[1] = MTT assay, cytotoxicity in human keratinocyte cell line; assay type: cell-based; conditions: human, Cell viability
Method: (§1) Firstly, the cytotoxicity is measured by the MTT assay. Phytosphingosine (PS), phytosphingosine-HCl (PS-HCl), C6-phytosphingosine (C6-PS), CLA-phytosphingosine (CLA-PS), tetraacetyl phytosphingosine (TAPS), and N-acetyl phytosphingosine (NAPS) are dissolved into DMSO to have the final concentration of 1-100 μM.
(§2) In order to study the effects of the compositions of the present invention on the cytotoxicity in the human keratinocyte cell line HaCaT cells, the cell viability is analyzed by the MTT (3-[4,5-dimethylthiazol-2-yl]-2,5-diphenyltetrazolium bromide) assay. HaCaT cells are supplied by Professor N. Fuseng of German Cancer Research in Germany. HaCaT cells are seeded in a density of 1×10^6 cells in a […] and cultured in DMEM (Dulbecco's Modified Eagle Medium) containing 10% fetal bovine serum (FBS, GIBCO), 100 units/ml penicillin, and 100 μg/ml streptomycin for 48 hours. They are treated with trypsin and 1-2×10^4 cells per well are seeded again in a 96-well plate by using a serum-free culture medium, about 3 hours after which they are cultured by treatment with phytosphingosine derivatives. After they are cultured for 24 hours, the MTT reagent is added at a concentration of 2 mg/ml, cultured for 4 hours, suspended in DMSO after removing the culture medium completely in order to measure O.D. at 540 nm. C2-ceramide is used for comparison.

[2] = MTT assay, cytotoxicity in human skin cancer cell line; assay type: cell-based; conditions: human, Cell viability
Method: as §1, §2
(§3) In order to study the effects of the compositions of the present invention on the cytotoxicity in A431 cells, human skin cancer cell line, the MTT assay is used. The method of cell culture and MTT assay are the same as those in the above method. C2-ceramide is used for comparison.

[3] = tested on: A431 cells, human skin cancer cell line; assay: as above; assay type: cell-based; conditions: human, 24 h
Method: as §1, §2, §3

[4] = MTT assay, cytotoxicity in HUVEC; assay type: cell-based, human; conditions: human
Method: as §1, §2
(§4) The MTT assay is used for the above purpose. Primary human umbilical vein endothelial cells are cultured from the human umbilical vein. The method of cell culture and the MTT assay are the same as those in the above. C2-ceramide is used for comparison.

[5] = tested on: human umbilical vein endothelial cells (HUVEC); assay: MTT assay, cytotoxicity in HUVEC; assay type: cell-based; conditions: human, 24 h, 30 μM
Method: as §1, §2, §4

[6] = MTT assay, cytotoxicity in immune cells separated from spleen of mice; assay type: cell-based; conditions: BDF, mouse
Method: The effect of the composition of the present invention on the cytotoxicity in immune cells (T cells, B cells, macrophages, monocytes, etc.) was examined. The spleen was removed from normal mice (BDF) and single cells were obtained from the spleen by mechanical aggregation method. And mononuclear cells containing T cells, B cells, macrophages and monocytes were isolated from single cells by density gradient centrifugation method using Ficoll Hypaque. Briefly, single cells were treated with PBS and overlayed on Ficoll Hypaque and centrifuged at 1500 rpm for 30 min. After centrifugation, the cells around the boundary of the Ficoll-Hapaque were collected and washed three times with PBS. The isolated cells were cultured for 24 hours in the presence of 1, 10, 50 and 100 μM of NAPS, TAPS, and PS to examine the effect of cytotoxicity, i.e. the degree of proliferation of the cells. C2-ceramide was used as control. The medium used in this experiment was RPMI 1640 suplemented with 10% of FBS and 100 μg/ml of penicillin and streptomycin.

Th1 cells activation = assay: Mixed leukocyte reaction (MLR), Th1 cells activation by TNBSO3, MTT assay; assay type: cell-based, mice; conditions: MLR with TNBSO3-conjugated stimulator cells, FIG. 4
Method: Whether the composition of the present invention has a suppressive effect on the Th1 cells activation which isolate […], IL-12, etc. by reacting with TNBSO3 […] was examined.
The mononuclear cells obtained from spleen of mice as described the above 4 were used for responder cells, and TNBSO3-conjugated cells were used for stimulator cells. The stimulator cells were obtained as follows:
The mononuclear cells were adjusted to be 2×10^7 cells/ml in PBS and the same volume of 20 mM TNBSO3 was added and incubated at 37° C. for 10 min in the dark state. After incubation, the cells wrer washed three times with PBS.
(§5) Each 2×10^5 responder cells and stimulator cells were mixed with each other and cultured for 5 days on the 96-well plate. And RPMI with 10% of serum was used as a medium.
(§6) The above cells were cultured for 24 hours in the presence of 1, 10, 50 and 100 μM of NAPS, TAPS, and PS to examine the proliferation of the cells.
(§7) C2-ceramide was used as control.

[7] = tested on: Th1 cells activation against allogenic cells (PBMC); assay: Reactions among allogenic cells, Th1 cells activation, MTT assay; assay type: cell-based, human; conditions: FIG. 5
Source text: Whether the composition of the present invention has a suppressive effect on the Th1 cells activation by allogenic cells in immune reation was examined.
PBMC obtained from different volunteers as described in the above 5 were used for responder cells and stimulator cells respectively. PBMC for stimulator cells were used after X-ray irradiation (3000 rad) to inhibit the proliferation of stimulator cells.
as §5, §6, §7

[8] = MTT assay, combined treatment with UVB irradiation; assay type: cell-based, human; design: Cell viability: unit not given here; conditions: human, HaCaT cells, HaCaT, read-out: Cell viability
Method: (§8) In order to study the synergistic effect in the cytotoxicity by the cotreatment with administration of the compositions of the present invention and with UVB irradiation, the cell viability is analyzed by MTT assay method in HaCaT cells. On a 100-mm dish, 1×10^6 HaCaT cells are seeded and cultured in DMEM containing 10% fetal bovine serum, 100 units/ml penicillin, and 100 μg/ml streptomycin for 48 hours. They are treated with trypsin, and 1-2×10^4 cells per well are seeded on a 96-well plate again by using a serum-free medium, which is removed after about 3 hours. HaCaT cells are washed with PBS three times, and 3.5 ml of PBS per plate is added. It is then irradiated with 200 J/m^2 of UVB. After irradiation, the medium is replaced with a DMEM medium. Then it is treated with the phytosphingosine derivatives of the present invention, and cultured for 24 hours. After 2 mg/ml of the MTT reagent is added, it is cultured for 4 hours. The medium is removed completely, the cells are suspended in DMSO, and O.D. is measured at 540 nm.

HaCaT cells = assay: MTT assay, combined treatment with UVB irradiation; assay type: cell-based, human; design: Cell viability: unit not given here; conditions: 1 μM, no UVB, 24 hours, HaCaT
Method: as §8

[9] = MTT assay, combined administration with Vit D3 or calcipotriol; assay type: cell-based, human; conditions: human, HaCaT cells, 1 μM singly, 24 hours, HaCaT; read-out: Cell viability
Method: (§9) In order to study the synergistic effect in the cytotoxicity when the compositions of the present invention are administered in combination with Vit D3 or calcipotriol, the cell viability is analyzed by MTT assay method in HaCaT cells human keratinocyte cell line.
(§10) To HaCaT cells, 1 μM of Vit D3 or calcipotriol, or 10 μM each of NAPS and TAPS, is administered singly or in combination with each other, and they are cultured for 24 hours. And the effects of these drugs on the cytotoxicity according to the single or combined administration are observed by MTT assay. C2-ceramide is used for comparison.

[10] = tested on: HaCaT cells human keratinocyte cell line; assay: as above; assay type: cell-based; conditions: 1 μM singly, 24 hours
Method: as §9, §10

CCCCCCCCCCCCCC[C@@H](O)[C@@H](O)[C@@H](N)CO [PS, phytosphingosine]
viability at 24 h, 1 µM [1]: 97 ± 11.1% | viability at 24 h, 3 µM [1]: 93 ± 3% | viability at 24 h, 10 µM [1]: 86 ± 10.1% | viability at 24 h, 30 µM [1]: 51 ± 9.6% | viability at 24 h, 3 µM [2]: 85 ± 10.7% | viability at 24 h, 50 µM [2]: 2 ± 0.2% | Cell viability ([3]; 10 µM): 30 ± 1.9 | cytotoxicity ([3]; 50 μM): 95-98% | viability at 24 h, 3.5 µM [4]: 64 ± 4.7% | viability at 24 h, 7 µM [4]: 19 ± 1.8% | viability at 24 h, 15 µM [4]: 14 ± 0.9% | viability at 24 h, 30 µM [4]: 13 ± 1% | cytotoxicity [5]: 86-91% | IC50 at 24 h [6]: ~75 µM | concentration showing a suppressive effect on Th1 cells activation (Th1 cells activation): 50 µM | suppressive effect on Th1 cells activation against allogenic cells ([7]; 50 μM): suppress completely | concentration showing a suppressive effect on Th1 cells activation against allogenic cells [7]: 50 μM | viability at 24 h, 1 µM ([8]; 1 μM + UVB 200 J/m^2, 24 hours): 38 ± 7.9% | viability at 24 h, 3 µM ([8]; 3 μM + UVB 200 J/m^2, 24 hours): 30 ± 3.3% | viability at 24 h, 3 µM ([8]; 3 μM, no UVB, 24 hours): 93 ± 5.5% | viability at 24 h, 5 µM ([8]; 5 μM + UVB 200 J/m^2, 24 hours): 28 ± 2.3% | viability at 24 h, 5 µM ([8]; 5 μM, no UVB, 24 hours): 85 ± 10.6% | viability at 24 h, 10 µM ([8]; 10 μM + UVB 200 J/m^2, 24 hours): 3 ± 0.9% | viability at 24 h, 10 µM ([8]; 10 μM, no UVB, 24 hours): 71 ± 7.6% | Cell viability (HaCaT cells): 133 ± 3.4

C=C1/C(=C\C=C2/CCC[C@]3(C)[C@@H]([C@H](C)/C=C/[C@@H](O)C4CC4)CC[C@@H]23)C[C@@H](O)C[C@@H]1O [calcipotriol, reference compound]
viability at 24 h, 1 µM [9]: 77 ± 5% | toxicity [10]: 23%
